Data from patent publication US20190038703A1, “METHODS OF TREATING ACUTE MYELOID LEUKEMIA WITH A FLT3 MUTATION” (Biokine Therapeutics Ltd., priority 2013, published 2019).
Where a SMILES comes first, the peptide text is derived from it. Bridges are numbered along the chain shown (N, C = ends). [ ]: non-standard residue; d: D form. The star is where a group is joined. 2Nal = N[C@@H](Cc1ccc2ccccc2c1)C(=O)O; Benzoyl(4-F) = O=C(c1ccc(F)cc1)*; Cit = NC(=O)NCCC[C@H](N)C(=O)O

Assays:
[1] = system: malignant cells of hematopoietic origin including AML; conditions: cited from earlier work
[2] = system: MV4-11 cells engrafted in NOD SCID gamma (NSG) mice; test: AML model of NSG mice engrafted with MV4-11 cells; format: in vivo, mouse; conditions: AC220 10 mg/Kg oral, daily for 7 days; for AML cells in the BM / percentage of alive AML blasts in the blood / level of AML cells in the spleen: BL-8040 400 ug/mouse SC; for AML cells in the BM: control 12.6%, FIGS. 11A-11B; for percentage of alive AML blasts in the blood: control 13.5%, FIG. 9; for level of AML cells in the spleen: control 21%, FIGS. 12A-12B
Protocol: In the in-vivo study an AML model of NOD SCID gamma (NSG) mice engrafted with MV4-11 cells was used. […] The survival and apoptosis of AML cells were examined in the blood, BM and spleen of engrafted mice.
Female mice at the age of 7-9 weeks day (−1) 26/1/14: mice were irradiated with 200 rad 24 hr before cells injection day 0-27/1/14: mice were IV injected with 10×10^6 of MV4-11 cells in total volume of 200 ul PBS.

human AML xenografts = conditions: subcutaneous injections; Beider et al., Exp. Hematol. 2011; cited from earlier work
[3] = system: human AML MV4-11 cells (FLT3-ITD); test: Example 2 in-vitro viability and apoptosis by FACS; format: cell-based; conditions: BL-8040 20 μM, 48 hrs
Protocol: Methods: The human AML MV4-11 cells (FLT3-ITD) was used. Cells were in-vitro incubated for 48 hrs in the presence of BL-8040 (20 μM), AC220 (50 nM) or their combination. The level of viable cells, percentage of apoptosis was evaluated by FACS.

[4] = system: human primary AML cells with wild-type FLT3; test: Survival assay (PI staining, FACS), human primary AML cells with FLT3-WT; format: cell-based; conditions: 48 hr; for decrease of the number of viable cells: human
From the text: (§1) Human primary AML cells with FLT3-ITD mutation and with FLT3-WT were obtained from AML patients after getting their consent in accordance with regulations of Chaim Sheba Medical Center (Tel-Aviv, Israel). Peripheral blood mononuclear cells (PBMCs) were separated from blood samples by density-gradient centrifugation on Ficoll-Paque (Pharmacia Biotech, Uppsala, Sweden). The cells were suspended in […] (FCS; Biological Industries, Kibbutz Beit Haemek, Israel), supplement with 10% DMSO then stored in liquid nitrogen. Prior to commencing a toxicity assay the isolated cells were thawed, re-suspended in Roswell Park Memorial Institute medium (RPMI 1640; Gibco BRL life technologies) supplemented with 20% FCS and incubated for 4 hr at 37° C. Isolated cells with FLT3-ITD mutation or with FLT3 wild type (FLT3-WT) were identified by using a procedure essentially as described by Levis and Small (Leukemia 17: 1738-1752, 2003). […] Following incubation the cells were stained with propidium iodide (PI; Sigma, St. Louis, Mo.; 1:1000) and the incidence of dead cells (% PI-positive) and the density of viable cells (PI-negative) were determined by FACScalibur using the procedure described by Beider and Begin (Exp Hematol 39: 282-92, 2011).

[5] = system: human primary AML cells with FLT3-ITD; test: Survival assay (PI staining, FACS), human primary AML cells with FLT3-ITD; format: cell-based; conditions: 48 hr; for decrease of the number of viable cells: human
From the text: as §1

Structure (SMILES) | cytotoxicity toward malignant cells of hematopoietic origin [1] | AML cells in the BM [2] | percentage of alive AML blasts in the blood [2] | level of AML cells in the spleen [2] | growth of human AML xenografts (human AML xenografts) | inhibition of cell growth [3] | cell death ([3]; AC220 50 nM or their combination) | increase of the percentage of dead cells ([4]; BL-8040 8 μM, FIG. 2A) | increase of the percentage of dead cells ([4]; BL-8040 20 μM, FIG. 8A) | decrease of the number of viable cells ([4]; 8 μM) | decrease of the number of viable cells ([4]; 20 μM) | increase of the percentage of dead cells ([5]; BL-8040 8 μM, FIG. 1A) | increase of the percentage of dead cells ([5]; BL-8040 20 μM, FIG. 7A) | decrease of the number of viable cells ([5]; 8 μM) | decrease of the number of viable cells ([5]; 20 μM) | reduction of total mouse WBC compared to the control ([2]; FIG. 10)
N=C(N)NCCC[C@H](NC(=O)[C@@H]1CSSC[C@H](NC(=O)[C@H](Cc2ccc3ccccc3c2)NC(=O)[C@H](CCCNC(=N)N)NC(=O)[C@H](CCCNC(=N)N)NC(=O)c2ccc(F)cc2)C(=O)N[C@@H](Cc2ccc(O)cc2)C(=O)N[C@@H](CCCNC(N)=O)C(=O)N[C@@H](CCCCN)C(=O)N[C@H](CCCCN)C(=O)N2CCC[C@H]2C(=O)N[C@@H](Cc2ccc(O)cc2)C(=O)N[C@@H](CCCNC(=N)N)C(=O)N[C@@H](CCCNC(N)=O)C(=O)N1)C(N)=O [BL-8040, 4F-benzoyl-Arg-Arg-Nal-Cys-Tyr-Cit-Lys-DLys-Pro-Tyr-Arg-Cit-Cys-Arg-NH2] ({Benzoyl(4-F)}-RR[2Nal]CY[Cit]K[dK]PYR[Cit]CR-NH2; disulfide 4-13) | CXCR4-dependent preferential cytotoxicity | 2.6% | 1.7% | 0.4% | significantly reduced the growth | 35% | 40% | 13.7% | 56.3% | 16.1% | 34.4% | 79.3% | 116.6% | 28.8% | 50.0% | –
CC(C)(C)c1cc(NC(=O)Nc2ccc(-c3cn4c(n3)sc3cc(OCCN5CCOCC5)ccc34)cc2)no1 [AC220, Quizartinib] | – | 0.05% | 0.1% | 0.09% | – | – | – | – | – | – | – | – | – | – | – | 65%
